From ChEMBL document CHEMBL3301361, “Experimental in vitro DMPK and physicochemical data on a set of publicly disclosed compounds”

Experiment: physchem
Conditions: octan-1-ol/water, pH 7.4, LogD7.4

| Compound | logD |
| --- | --- |
| COC(=O)Nc1cnc(-c2ccc(F)cc2)n(CC(=O)NC(C(=O)C(F)(F)F)C(C)C)c1=O (configuration not stated) | 1.82 |
| CC(C)CC(c1ccccn1)n1[nH]c(=O)c2nc3cc(Cl)ccc3c(O)c2c1=O (configuration not stated) | 1.83 |
| CCCCCCCN(CCc1ccc(OC(C)(C)C(=O)O)cc1)C(=O)Nc1ccc(F)cc1F | 1.93 |
| Nc1[nH]nc2cccc(Cl)c12 | 1.92 |
| O=CN1CC=C(c2c(F)cc(N3C[C@H](COc4ccon4)OC3=O)cc2F)CC1 | 2.01 |
| O=c1c(-c2ccc(O)c(O)c2)coc2cc(O)ccc12 | 1.88 |
| CC(C)C(NC(=O)Cn1c(-c2ccccc2)cc2c(O)nc(O)nc2c1=O)C(=O)C(F)(F)F (configuration not stated) | 1.88 |
| Cc1cc2[nH]c(=O)c(O)cc(=O)c2cc1C | 1.99 |
| CC(C)C(NC(=O)Cn1c(-c2ccccc2)cc2c(=O)n(CCN3CCOCC3)c(=O)[nH]c2c1=O)C(=O)C(F)(F)F (configuration not stated) | 1.91 |
| COc1cc(O)cc2occ(-c3ccc(O)cc3)c(=O)c12 | 2 |
| Nc1ccc(Cl)c(-c2nc3ncccc3o2)c1 | 1.97 |
| CCCNC(=O)c1nnc2c(-c3ncccn3)c(F)ccc2c1N | 2.07 |
| CCOc1cc2nnc(C(N)=O)c(Nc3cccc(Cl)c3F)c2cc1N1CCN(C)CC1 | 1.99 |
| COc1cc2c(Nc3c(Cl)ccc4c3OCO4)ncnc2cc1OCCCN1CCCCC1 | 2.05 |
| COc1cc2c(Nc3c(Cl)ccc4c3OCO4)ncnc2cc1OCC1CCN(C)CC1 | 1.83 |
| Oc1ncnc2onc(-c3ccc(F)cc3)c12 | 1.97 |
| COc1cc(F)ccc1-c1cncc(CNC[C@@H]2CCCO2)n1 | 2 |
| C[C@H]1O[C@@H](n2cnc3c(N)nc(OC(C4CC4)C(F)(F)F)nc32)[C@H](O)[C@@H]1O (some centres not stated) | 1.83 |
| CN[C@@H](C)C(=O)N[C@H](C(=O)N[C@H]1CCCN(CCc2ccc(C)cc2)C1)C(C)(C)C | 2.05 |
| CN1CCCC(CN2CCN(C(=O)Nc3ccc(Cl)c(Cl)c3)CC2)C1 (configuration not stated) | 1.98 |

| Compound | logD |
| --- | --- |
| CCN1CCC[C@@H](CN2CCN(C(=O)Nc3ccc(Cl)c(Cl)c3)CC2)C1 | 1.94 |
| CCN1CCC[C@H](CN2CCN(C(=O)Nc3ccc(Cl)c(Cl)c3)CC2)C1 | 1.86 |
| CC(C)N1CCN[C@@H](CN2CCN(C(=O)Nc3ccc(Cl)c(Cl)c3)CC2)C1 | 1.92 |
| CC(C)Cn1c(=O)n(C)c(=O)c2c(C(=O)N3CC[C@@H](O)C3)c(Cc3cccc4ncccc34)sc21 | 1.98 |
| Cc1cccc(S(=O)(=O)NC(=O)N2CCC(N3CCC(Oc4ccc(Cl)c(Cl)c4)CC3)CC2)c1 | 1.84 |
| N#Cc1cccc(S(=O)(=O)NC(=O)N2CCC(N3CCC(Oc4ccc(Cl)c(Cl)c4)CC3)CC2)c1 | 1.81 |
| CCCCNc1nc(N)c2[nH]c(=O)n(Cc3ccc(OCCN(C)C)nc3)c2n1 | 1.9 |
| Cn1ccc2c(-c3nc(CS(C)(=O)=O)cc(N4CCOCC4)n3)cccc21 | 2 |
| Cc1cc(-c2ccc(N3C[C@H](Cn4ccnn4)OC3=O)cc2F)on1 | 1.99 |
| Cc1cc(O)ccc1N1C(=O)c2ccc(O)cc2C1=O | 2 |
| CNc1cnc(-c2ccc(F)cc2)n(CC(=O)NC(C(=O)C(F)(F)F)C(C)C)c1=O (configuration not stated) | 1.86 |
| COC(=O)N1CCN(c2ccnc(-n3ccnc3)n2)C(CC(=O)NCc2ccc3c(c2)OCO3)C1 (configuration not stated) | 1.88 |
| Cc1ccc(NC(=O)c2ccnc(N3CCOCC3)c2)cc1Nc1ccnc(OCC2CCCN(C)C2)n1 (configuration not stated) | 1.9 |
| CC(C)Cn1c(=O)n(C)c(=O)c2c(C(=O)N3C[C@H](O)CO3)c(Cc3c[nH]c4ncccc34)sc21 | 2.04 |
| CN1CCN(C(=O)c2cc3cc(F)ccc3[nH]2)CC1 | 1.97 |
| Cc1ncc(-c2ccnc(Nc3ccc(C(=O)NCCN(C)C)c(F)c3)n2)n1C(C)C | 1.96 |
| Cc1ncc(-c2nc(Nc3ccc(C(=O)N4CCCN(C)CC4)cc3)ncc2F)n1C(C)C | 2.02 |
| NC(=O)c1c(N)sc2c1CCCC2 | 1.84 |
| CN(C)CCCNS(=O)(=O)c1ccc(Nc2nccc(-c3cnc4ccccn34)n2)cc1 | 1.9 |

Results, then the compound that gave them:

| logD | Compound |
| --- | --- |
| 2 | CC(=O)NC1CC(C)N(C(=O)c2ccccc2)c2ccccc21 (configuration not stated) |
| 2.02 | CC(C)C(NC(=O)Cn1c(-c2cccs2)ncc(NC(=O)OCc2ccccc2)c1=O)C(=O)C(F)(F)F (configuration not stated) |
| 1.91 | CC(C)C(NC(=O)Cn1c(-c2ccccc2)ccc(NC(=O)OCc2ccccn2)c1=O)C(=O)C(F)(F)F (configuration not stated) |
| 1.9 | O=c1[nH]n(C(c2ccccn2)C2CCCC2)c(=O)c2c(O)c3ccc(Cl)cc3nc12 (configuration not stated) |
| 2.07 | Cc1cc2n[nH]c(=O)n2c2cc(-c3ccco3)ccc12 |
| 2 | O=C(OCCN1CCCCC1)c1c[nH]c2ccccc12 |
| 1.92 | NC(=O)c1cccc(OC2CCN(Cc3ccccc3)CC2)c1 |
| 1.91 | Cc1occc(=O)c1OCc1ccc(F)cc1 |
| 1.87 | Cc1occc(=O)c1OCc1ccccc1 |
| 2.08 | CC(O)(C(=O)Nc1ccc(S(=O)(=O)c2cccnc2)cc1)C(F)(F)F (configuration not stated) |
| 1.91 | N=C(N)Nc1nc2ccccc2o1 |
| 2 | CC(C)C(NC(=O)Cn1c(-c2ccccc2)ccc(NC(=O)CN2CCOCC2)c1=O)C(=O)C(F)(F)F (configuration not stated) |
| 1.87 | O=C(NNc1cccc(Cl)c1)c1cccnc1Cl |
| 2.04 | Cc1nc(N)c2nc(O)n(Cc3ccccc3)c2n1 |
| 2.02 | FC(F)c1nc2ccccc2[nH]1 |
| 2.08 | Cc1cc(Nc2ccc(F)cc2)nc(N)n1 |
| 1.85 | Nc1c2c(nc3c(-c4ncccn4)cccc13)CN(C1CCC1)C2=O |
| 2 | Cc1cccc(NC(=O)NCC(c2cccnc2)N2CCOCC2)c1 (configuration not stated) |
| 1.85 | O=S1NC(Cc2ccc3ccccc3c2)=NO1 (configuration not stated) |
| 1.82 | Fc1cccc(-c2cncc(CNCC3CC3)n2)c1F |
| 2.06 | COc1cc(F)ccc1-c1cccc(CNC2CCCC2)n1 |
| 1.81 | CCC(c1nc2ccsc2c(=O)n1Cc1ccccc1)N(CCCN)C(=O)c1ccc(C)cc1 (configuration not stated) |

| logD | Compound |
| --- | --- |
| 2.06 | CCC(c1nc2sccc2c(=O)n1Cc1ccccc1)N(CCCN)C(=O)c1ccc(C)cc1 (configuration not stated) |
| 1.9 | c1ccc(C2Cc3ccccc3CN2)cc1 (configuration not stated) |
| 1.95 | CCCSc1ncccc1C(=O)N1CCCC1c1ccncc1 (configuration not stated) |
| 1.89 | c1ccc(CC2NCCc3ccccc32)cc1 (configuration not stated) |
| 1.81 | CCOC(=O)c1coc2ccccc2c1=O |
| 1.81 | N#Cc1ccc2cccc(O)c2n1 |
| 1.94 | C1=CCC(c2cc3ccccc3o2)CNC1 (configuration not stated) |
| 2 | Cn1c(N)nc(CCc2ccccc2)cc1=O |
| 2.03 | CN1C(=O)CC(C)(CCc2cccc(-c3ccccc3)c2)N=C1N (configuration not stated) |
| 2 | CC[S+]([O-])c1ncccc1C1(O)CCN(CC23CC(c4ccccc42)c2ccccc23)CC1 (configuration not stated) |
| 1.85 | O=C(O)c1[nH]c2cc(Cl)cc(Cl)c2c1/C=C1\CCN(c2ccccc2)C1=O |
| 2 | O=C1c2ccc(O)cc2C(=O)N1c1cccc(O)c1 |
| 2 | O=C1c2ccccc2C(=O)N1c1ccc(O)cc1 |
| 1.9 | NS(=O)(=O)c1ccc2c(c1)C1C=CCC1C(c1cccc3ccccc13)N2 (configuration not stated) |
| 1.9 | CCCc1c(OCc2cccc(NC(=O)c3ccccc3C(=O)O)c2)ccc(C(C)=O)c1O |
| 1.9 | Cc1cc(=O)[nH]c2ccccc12 |
| 1.88 | O=C1C(=O)c2cccnc2-c2ccccc21 |
| 2.07 | O=C1/C(=N\O)c2ccccc2N1Cc1ccccc1[N+](=O)[O-] |
| 1.84 | CC(C)C(NC(=O)Cn1c(-c2ccccc2)ccc(NC=O)c1=O)C(=O)C(F)(F)F (configuration not stated) |
| 1.93 | COc1cc(C(=O)NS(=O)(=O)c2ccccc2)ccc1Cn1ccc2ccc(C(=O)NCC3CCCC3)cc21 |
| 1.91 | Nc1nc(-c2ccccc2)nn1Cc1ccccc1 |
